Tests used:
[1] = tested on: Mouse-derived myoblast line C2C12 cell; assay: Cell differentiation promoting activity in myoblast (creatine kinase activity); format: cell-based; settings: 48 h, 1 μM compound, 2 days in differentiation medium, CK activity without compound = 100%, read-out: creatinine kinase activating action (%)
Method: • (1) Mouse-derived myoblast line C2C12 cell (Dainippon Pharmaceutical Co., Ltd.) was subcultured in a high glucose Eagle's modified Dulbecco's medium (GIBCO) containing 10% calf fetal bovine serum (GIBCO), 100 unit/mL penicillin and 100 μg/mL streptomycin (hereinafter to be referred to as a growth medium), plated at 5000 cells/cm^2 and cultured at 37° C., under 5% CO2. • (2) When the cells reached subconfluence, the medium was exchanged with a high glucose Eagle's modified Dulbecco's medium (GIBCO) containing 2% horse serum (GIBCO) and penicillin, streptomycin and a test compound (hereinafter to be referred to as a differentiation medium), and the cells were cultured for 2 days. To the control group was added DMSO solution instead of the test compound. • (3) The cells were washed with PBS, 0.5% NP-40 solution was added thereto, and the cells were lysed by freeze-thawing. The cell extract was centrifuged, and the creatine kinase activity in the supernatant was measured as an index of muscle differentiation. The creatine kinase activity was measured using CPKII Test Wako (Wako Pure Chemical Industries, Ltd.) according to the manual of the kit. The tests using the compounds of Example 7 to Example 14 were corrected based on the total protein amount measured using CA Protein Assay Kit (Thermo Scientific).
The numerical values in Table 3 show CK activity of the compound addition group with the CK activity without addition of the compound as 100%, and 1 μM of the compound was added for the measurement.

NF-kB = NF-kB activation suppressive action in muscle cell (luciferase reporter, TNF-α induced); format: cell-based, mouse; settings: TNF-α 10 ng/mL, activity without TNF-α = 1, n=8
Method: • (1) C2C12 cells introduced with NF-kB reporter plasmid (C2C12/NF-kB-luc, Panomics) was plated at 20000 cells/cm^2, 100 μg/ml hygromycin was added thereto, and the cells were cultured in a growth medium in the same manner as in Example 1. • (2) The cells were cultured in a differentiation medium containing the compound of Example 1, Example 8, Example 9, Example 10 or Example 11 for 1 hr, TNF-α was added thereto such that the concentration is 10 ng/mL, and the cells were cultured for 4 hr. • (3) The luciferase activity in the medium was measured using a Stedy-Glo luciferase assay system (Promega). The NF-kB activity was evaluated by measuring the luciferase activity.
The data in Table 6 to Table 10 show mean±standard deviation at n=8 (n is the number of samples).

SMILES | activity at 1 µM [1] | NF-κB activity (multiple) (NF-kB; 0.001 μM compound) | NF-κB activity (multiple) (NF-kB; 0.003 μM compound) | NF-κB activity (multiple) (NF-kB; 0.01 μM compound) | NF-κB activity (multiple) (NF-kB; 0.03 μM compound) | NF-κB activity (multiple) (NF-kB; 0.1 μM compound) | NF-κB activity (multiple) (NF-kB; 0.3 μM compound) | NF-κB activity (multiple) (NF-kB; 1 μM compound) | NF-κB activity (multiple) (NF-kB; 3 μM compound) | NF-κB activity (multiple) (NF-kB; 10 μM compound)
COP(=O)(Cc1ccc(NC(=O)/C=C/c2cnccc2-c2ccccc2)cc1)OC [Example 12, dimethyl (4-{[(2E)-3-(4-phenylpyridin-3-yl)prop-2-enoyl]amino}benzyl)phosphonate] | 189% | – | – | – | – | – | – | – | – | –
CCOP(=O)(Cc1ccc(NC(=O)/C=C/c2cnccc2-c2ccc(F)cc2)cc1)OCC [Example 13, diethyl [4-({(2E)-3-[4-(4-fluorophenyl)pyridin-3-yl]prop-2-enoyl}amino)benzyl]phosphonate] | 184% | – | – | – | – | – | – | – | – | –
CCOP(=O)(Cc1ccc(NC(=O)/C=C/c2cnccc2-c2ccccc2)cc1)OCC [Example 11, diethyl (4-{[(2E)-3-(4-phenylpyridin-3-yl)prop-2-enoyl]amino}benzyl)phosphonate] | 189% | 9.7 multiple | 10.8 multiple | 10.5 multiple | 10.6 multiple | 10.6 multiple | 9.0 multiple | 7.3 multiple | 7.0 multiple | 5.2 multiple
O=C(/C=C/c1cnccc1-c1ccc(F)cc1)Nc1ccc(Cn2cnc3ccccc32)cc1 [Example 8, (2E)-N-[4-(1H-benzimidazol-1-ylmethyl)phenyl]-3-[4-(4-fluorophenyl)pyridin-3-yl]prop-2-enamide] | 197% | 9.4 multiple | 9.7 multiple | 10.8 multiple | 10.6 multiple | 9.4 multiple | 7.6 multiple | 7.1 multiple | 6.6 multiple | 6.1 multiple
O=C(/C=C/c1cnccc1-c1ccc(F)cc1)Nc1ccc(OCc2nnco2)cc1 [Example 10, (2E)-3-[4-(4-fluorophenyl)pyridin-3-yl]-N-[4-(1,3,4-oxadiazol-2-ylmethoxy)phenyl]prop-2-enamide] | 164% | 10.0 multiple | 10.2 multiple | 10.5 multiple | 10.5 multiple | 9.6 multiple | 7.8 multiple | 7.5 multiple | 6.9 multiple | 6.2 multiple
O=C(/C=C/c1cnccc1-c1ccc(F)cc1)Nc1ccc(Cn2ccnc2)cc1 [Example 9, (2E)-3-[4-(4-fluorophenyl)pyridin-3-yl]-N-[4-(1H-imidazol-1-ylmethyl)phenyl]prop-2-enamide] | 208% | 11.8 multiple | 13.0 multiple | 12.1 multiple | 13.1 multiple | 13.0 multiple | 10.2 multiple | 8.4 multiple | 7.6 multiple | 6.9 multiple
CS(=O)(=O)Cc1ccc(NC(=O)/C=C/c2cnccc2-c2ccc(F)cc2)cc1 [Example 7, (2E)-3-[4-(4-fluorophenyl)pyridin-3-yl]-N-{4-[(methylsulfonyl)methyl]phenyl}prop-2-enamide] | 197% | – | – | – | – | – | – | – | – | –
COP(=O)(Cc1ccc(NC(=O)/C=C/c2cnccc2-c2ccc(F)cc2)cc1)OC [Example 14, dimethyl [4-({(2E)-3-[4-(4-fluorophenyl)pyridin-3-yl]prop-2-enoyl}amino)benzyl]phosphonate] | 205% | – | – | – | – | – | – | – | – | –

Reference: patent US8937055B2, “Heterocyclic ring compound having muscle cell or adipocyte differentiation regulating action” (Takeda Pharmaceutical Company Limited, priority 2010, dated 2015)
